The target of one assay is T1, erythrocyte AChE (Homo sapiens, UniProt P22303).
T1 construct: from tissue
Briefly: In vitro inhibition of erythrocyte AChE (Table 3). Format: biochemical. Particulars: for S.I.: selectivity index (IC50 BuChE/IC50 AChE); for IC50: erythrocyte AChE, n = 4-8, read-out: AChE IC50 (μM) ± s.e.

The subject of a further assay is heart AChE. In words: Inhibition kinetics of heart AChE after oral administration (Table 2). Format: in vivo. To be noted: p.o. at 1/7 LD50: CHF 2060 10, CHF 2819 1.3, CHF 2822 2.5, CHF 2957 9 mg/kg; 1, 4, 16 h; rat. The method, then:
(§1) In a preferred embodiment of the present invention, compounds CHF 2819, CHF 2957, CHF 2822 were evaluated for their enzymatic inhibition potency and selectivity of action through a series of parameters in comparison with n-heptylaminocarbonylgeneseroline hydrochloride (CHF2060).
(§2) Male SD rats weighing 150-200 g were split into groups of 8 animals each, depending on the treatment with the different substances, which were orally administered in distilled water, at a volume of 2 ml/kg. After 2 hours from the administration, the animals were sacrificed as to take their brains. Brain tissue was homogenized in a […] solution in 0.1 M phosphate buffer at pH 8. After 15 minutes centrifugation, at 4° C., the supernatant was separated and AChE was determined on it with the method described by ElIman G. L. et al. (Biochem Pharmacol. 7, 88-95, 1961). For each treatment enzyme inhibition percent was determined against controls (animals treated with distilled water only).
(§3) Another series of experiments was performed in order to determine inhibition kinetics of brain and heart AChE after 1, 4 and 16 hours from administration of each tested substance. Enzyme was assayed on tissue homogenates similarly to what above described. […] Area Under Curve (AUC) was calculated by means of the enzymatic inhibition curve, for brain and heart tissue, related to the three test times.

A further assay addresses T2, human plasma BuChE (Homo sapiens, UniProt P06276).
T2 construct: human plasma BuChE; from tissue; host or cells: human plasma
In words: In vitro inhibition of human plasma BuChE (Table 3). In kind it is biochemical. Particulars: for IC50: human plasma BuChE, n = 4-8, read-out: BuChE IC50 (μM) ± s.e.

The target of assay [1] is T3, brain AChE (Rattus norvegicus, UniProt P37136).
T3 construct: from tissue; host or cells: rat brain (male SD rats), homogenate in Triton/phosphate buffer, supernatant
In words: Inhibition kinetics of brain AChE after oral administration (Table 2). In kind it is in vivo. Particulars: for selectivity index*: Brain AUC/Heart AUC; for selectivity index* / brain AUC (% inhib · xh) / inhibition at 9 mg/kg: p.o. at 1/7 LD50: CHF 2060 10, CHF 2819 1.3, CHF 2822 2.5, CHF 2957 9 mg/kg, rat; for brain AUC (% inhib · xh) / inhibition at 9 mg/kg: 1, 4, 16 h; for inhibition at 9 mg/kg: po, read-out: brain AChE maximum % inhibition. The method, then: as §1, §2, §3

In assay [2] the target is T3, brain AChE. Briefly: Rat brain AChE inhibition ex vivo after oral administration (Table 1). In kind it is in vivo. To be noted: for ED50: read-out: ED50 (dose of compound to inhibit 50% of the enzyme), p.o., brain AChE, C.L. 95% given; for inhibition at 3 mg/kg: 3 mg/kg p.o.; for Potency relative to CHF 2060: inhibition of AChE after oral administration in rat. The method, then: as §1, §2

Assay [3] relates to brain acetylcholinesterase (AChE). Particulars: European patent 0599890; cited from earlier work.

Structures can show the parent of a compound that is named as a salt. Where two headings read alike, the source gives them in different places.

T3 sequence (P37136 32-614): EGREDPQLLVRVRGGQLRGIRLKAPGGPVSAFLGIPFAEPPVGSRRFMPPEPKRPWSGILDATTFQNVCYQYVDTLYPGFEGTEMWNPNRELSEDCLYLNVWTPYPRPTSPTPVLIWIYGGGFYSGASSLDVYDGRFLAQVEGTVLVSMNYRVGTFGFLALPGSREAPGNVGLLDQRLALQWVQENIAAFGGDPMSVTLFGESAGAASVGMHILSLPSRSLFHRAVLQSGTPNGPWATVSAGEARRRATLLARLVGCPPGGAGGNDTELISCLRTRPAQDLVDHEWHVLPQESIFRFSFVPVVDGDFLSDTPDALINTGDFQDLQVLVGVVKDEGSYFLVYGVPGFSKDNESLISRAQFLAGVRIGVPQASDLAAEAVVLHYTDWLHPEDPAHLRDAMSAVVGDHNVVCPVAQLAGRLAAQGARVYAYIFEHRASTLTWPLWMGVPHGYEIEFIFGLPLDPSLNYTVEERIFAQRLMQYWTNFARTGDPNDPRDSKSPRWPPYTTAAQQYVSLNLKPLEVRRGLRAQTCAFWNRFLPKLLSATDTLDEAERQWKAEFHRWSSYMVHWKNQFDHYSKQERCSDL
T1 sequence (P22303 other isoform, or with tags, fused parts or gaps): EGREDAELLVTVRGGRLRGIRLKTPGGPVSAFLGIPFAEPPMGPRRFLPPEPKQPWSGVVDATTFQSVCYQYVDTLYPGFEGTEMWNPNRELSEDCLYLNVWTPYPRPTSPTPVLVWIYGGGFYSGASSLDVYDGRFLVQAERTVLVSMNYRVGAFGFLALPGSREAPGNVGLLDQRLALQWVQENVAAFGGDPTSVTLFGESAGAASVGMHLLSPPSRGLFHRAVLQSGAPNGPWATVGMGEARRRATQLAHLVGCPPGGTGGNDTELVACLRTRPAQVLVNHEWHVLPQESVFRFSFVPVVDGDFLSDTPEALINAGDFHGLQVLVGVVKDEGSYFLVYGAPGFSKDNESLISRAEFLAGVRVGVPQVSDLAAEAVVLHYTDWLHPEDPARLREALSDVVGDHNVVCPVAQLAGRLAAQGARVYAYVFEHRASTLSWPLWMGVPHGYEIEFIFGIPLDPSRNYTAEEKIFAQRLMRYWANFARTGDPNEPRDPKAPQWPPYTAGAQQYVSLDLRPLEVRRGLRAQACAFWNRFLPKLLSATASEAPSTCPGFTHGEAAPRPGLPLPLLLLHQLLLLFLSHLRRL
T2 sequence (P06276 29-602): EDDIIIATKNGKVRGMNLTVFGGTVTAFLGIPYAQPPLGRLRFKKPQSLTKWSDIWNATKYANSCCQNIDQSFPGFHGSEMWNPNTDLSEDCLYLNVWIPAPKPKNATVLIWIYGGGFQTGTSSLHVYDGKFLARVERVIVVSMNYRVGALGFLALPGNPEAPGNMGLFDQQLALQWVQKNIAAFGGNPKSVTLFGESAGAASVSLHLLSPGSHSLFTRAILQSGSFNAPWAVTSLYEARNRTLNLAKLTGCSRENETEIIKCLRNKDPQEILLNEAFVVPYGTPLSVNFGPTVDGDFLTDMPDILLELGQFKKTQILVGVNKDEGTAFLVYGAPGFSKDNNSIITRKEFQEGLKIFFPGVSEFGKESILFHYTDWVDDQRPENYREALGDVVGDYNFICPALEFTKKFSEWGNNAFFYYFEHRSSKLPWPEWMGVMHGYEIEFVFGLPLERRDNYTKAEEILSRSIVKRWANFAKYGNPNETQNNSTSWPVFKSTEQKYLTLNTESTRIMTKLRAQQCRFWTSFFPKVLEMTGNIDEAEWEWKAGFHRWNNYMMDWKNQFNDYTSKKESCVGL

Consider `CCN(C)C(=O)Oc1cccc([C@H](C)N(C)C)c1` [SDZ-ENA 713, reference compound], for which the “AChE affinity / activity (in words)” value on erythrocyte AChE (in vitro, evaluated as IC50) is “less active than other products”. This molecule also returned a S.I. on erythrocyte AChE of 0.007.
On to `CCCCCCCNC(=O)Oc1ccc2c(c1)[C@]1(C)CCN(C)OC1N2C` (stereo partly shown) [CHF 2060, n-heptylaminocarbonylgeneseroline hydrochloride, reference compound], for which, in the assay with heart AChE, the “Heart AChE maximum % inhibition” value came out at 41% and the “Heart AUC (% inhib · xh)” value turned out to be 450 % inhib · xh. In addition, on human plasma BuChE, the “BuChE inhibition relative to AChE (in words)” value is “definitely more potent in inhibiting BuChE, rather than AChE” and the IC50 is 0.005 ± 0.0007 µM. The IC50 on erythrocyte AChE (in vitro) stood at 0.85 ± 0.08 µM. The same molecule came in with a S.I. on erythrocyte AChE of 0.005. For the same molecule, on brain AChE [1], the “selectivity index*” value worked out at 0.6, the “brain AUC (% inhib · xh)” value is reported as 252 % inhib · xh and the inhibition at 9 mg/kg stood at 20%. Also, on brain AChE [2], the “Potency order (*)” value came out at 1. Besides, the 50% effective dose (ED50) on brain AChE [2] (po, rat, 2 h) is 13.2 mg/kg. Moreover, on brain AChE [2] (rat, po, 2 h, SD rats), the inhibition at 3 mg/kg amounted to 8%. In addition, the inhibition at 10 mg/kg on brain AChE [2] (rat, po, 10 mg/kg p.o., 2 h, SD rats) stood at 29%. This molecule also gave an inhibition at 30 mg/kg against brain AChE [2] (rat, po, 30 mg/kg p.o., 2 h, SD rats) of 60%. In assay [3], the “brain acetylcholinesterase inhibition, duration (in words)” value was “inhibitor of brain acetylcholinesterase characterised by a long action”.
Regarding `CCc1ccccc1NC(=O)Oc1ccc2c(c1)[C@]1(C)CCN(C)OC1N2C` (stereo partly shown) [CHF 2819, n-(2-ethylphenyl)aminocarbonylgeneseroline hydrochloride], in the assay on heart AChE, the “Heart AChE maximum % inhibition” value was found to be 4% and the “Heart AUC (% inhib · xh)” value is 36 % inhib · xh. Moreover, at human plasma BuChE, the 50% inhibitory concentration (IC50) worked out at 55.2 ± 6.43 µM. At erythrocyte AChE (in vitro), the “selectivity AChE versus BuChE (in words)” value is given as “favourable "in vitro" selectivity on AChE with respect to BuChE” and the IC50 turned out to be 0.48 ± 0.06 µM. In addition, the “selectivity on AChE” value on erythrocyte AChE (in vitro, AChE versus BuChE, from selectivity index) came to 115 times. In addition, the S.I. at erythrocyte AChE stood at 115. In addition, on brain AChE [1], the “selectivity index*” value was determined as 9.7 and the “brain AUC (% inhib · xh)” value was 348 % inhib · xh. At brain AChE [1] (brain versus heart/peripheral), the “in vivo selectivity in inhibiting brain AChE (in words)” value is recorded as “"in vivo" selectivity in inhibiting brain AChE”. For the same molecule, at brain AChE [1] (in vivo), the “duration of action (in words)” value is on record as “good duration of action”. Moreover, the “Potency relative to CHF 2060” value on brain AChE [2] is 8 times. Moreover, at brain AChE [2] (po, rat, 2 h), the ED50 amounted to 1.5 mg/kg. Also, at brain AChE [2] (rat p.o., CHF 2060 = 1), the “Potency order (*)” value was determined as 8. The same molecule gave an inhibition at 0.4 mg/kg against brain AChE [2] (rat, po, 0.4 mg/kg p.o., 2 h, SD rats) of 9%. The molecule also came in with an inhibition at 1.3 mg/kg on brain AChE [2] (rat, po, 1.3 mg/kg p.o., 2 h, SD rats) of 34%. The same molecule yielded an inhibition at 3.7 mg/kg against brain AChE [2] (rat, po, 3.7 mg/kg p.o., 2 h, SD rats) of 55%.
At erythrocyte AChE, `CNC(=O)Oc1ccc2c(c1)[C@]1(C)CCN(C)[C@@H]1N2C` [Physostigmine, reference compound] had a S.I. of 0.27.
As to `Cc1ccccc1NC(=O)Oc1ccc2c(c1)[C@]1(C)CCN(C)OC1N2C` (stereo partly shown) [CHF 2822, n-(2-methylphenyl)aminocarbonylgeneseroline hydrochloride], in the assay with heart AChE, the “Heart AChE maximum % inhibition” value turned out to be 9% and the “Heart AUC (% inhib · xh)” value was found to be 96 % inhib · xh. Further, on human plasma BuChE, the IC50 is 0.18 ± 0.01 µM. At erythrocyte AChE (in vitro), the “selectivity AChE versus BuChE (in words)” value is reported as “slightly less selective” and the IC50 was 2.01 ± 0.08 µM. At erythrocyte AChE, this molecule had a S.I. of 0.09. Also, on brain AChE [1], the “selectivity index*” value is given as 3.9 and the “brain AUC (% inhib · xh)” value came to 379 % inhib · xh. Also, at brain AChE [2], the “Potency relative to CHF 2060” value came out at 7 times. Further, the median effective dose (ED50) on brain AChE [2] (po, rat, 2 h) came out at 1.6 mg/kg. Moreover, on brain AChE [2] (rat p.o., CHF 2060 = 1), the “Potency order (*)” value was found to be 7. Besides, 0.8 mg/kg produced 25% inhibition at brain AChE [2] (rat, po, 0.8 mg/kg p.o., 2 h, SD rats). The molecule further came in with an inhibition at 2.5 mg/kg against brain AChE [2] (rat, po, 2.5 mg/kg p.o., 2 h, SD rats) of 46%. At brain AChE [2] (rat, po, 7.5 mg/kg p.o., 2 h, SD rats), the inhibition at 7.5 mg/kg was 68%.
For the molecule `Cc1cccc(NC(=O)Oc2ccc3c(c2)[C@]2(C)CCN(C)OC2N3C)c1` (stereo partly shown) [CHF 2957, n-(3-methylphenyl)aminocarbonylgeneseroline hydrochloride], in the assay on heart AChE, the “Heart AChE maximum % inhibition” value is reported as 13% and the “Heart AUC (% inhib · xh)” value was 125 % inhib · xh. In addition, at human plasma BuChE, the 50% inhibitory concentration (IC50) was found to be 134 ± 9.7 µM. Besides, on erythrocyte AChE (in vitro), the “selectivity AChE versus BuChE (in words)” value is given as “good selectivity” and the half-inhibitory concentration (IC50) came to 4.2 ± 0.29 µM. At erythrocyte AChE, this molecule yielded a S.I. of 32. For the same molecule, at brain AChE [1], the “selectivity index*” value was 4.7, the “brain AUC (% inhib · xh)” value was 585 % inhib · xh and the inhibition at 9 mg/kg was 62%. For the same molecule, the “Potency relative to CHF 2060” value on brain AChE [2] came out at 3 times. For the same molecule, the ED50 on brain AChE [2] (po, rat, 2 h) is 4.1 mg/kg. In addition, the “Potency order (*)” value on brain AChE [2] (rat p.o., CHF 2060 = 1) is 3. At brain AChE [2] (rat, po, 2 h, SD rats), this molecule yielded an inhibition at 3 mg/kg of 21%. Further, the inhibition at 6 mg/kg on brain AChE [2] (rat, po, 6 mg/kg p.o., 2 h, SD rats) was 56%. The molecule further came in with an inhibition at 9 mg/kg on brain AChE [2] (rat, po, 9 mg/kg p.o., 2 h, SD rats) of 67%.

(Values after patent publication US6297237A, “Process for the preparation of aminocarbonyl derivatives of geneseroline having selective brain anticholinesterase activity” (priority 1997, dated 2001).)
